Among the data in PubChem BioAssay AID330 (DTP/NCI, 2004) are T/C values, retold here.

In the assay the test system is P388 leukemia ip, CD2F1 mice, survival T/C. Description: NCI In Vivo Anticancer Drug Screen. Data for tumor model P388 Leukemia (intraperitoneal) in CD2F1 (CDF1) mice. The conditions noted are these: endpoint: median survival time, higher = longer survival. An outline of the steps:
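Mice carrying the transplanted tumor received test compound or vehicle. Survival was recorded in each group, and the value is the treated-group measurement divided by that of the vehicle-treated control group.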

Setting [1] is: dose: 25.0 mg/kg/injection, schedule: Q04DX002 (ip), vehicle: saline with Tween-80.
The mark [2] stands for this setting: dose: 50.0 mg/kg/injection, schedule: Q04DX002 (ip), vehicle: saline with Tween-80.
The mark [3] stands for this setting: dose: 100.0 mg/kg/injection, schedule: Q04DX002 (ip), vehicle: saline with Tween-80.
Where [4] appears, read: dose: 100.0 mg/kg/injection, schedule: Q04DX003 (ip), vehicle: saline with Tween-80.
Setting [5] is: dose: 200.0 mg/kg/injection, schedule: Q04DX003 (ip), vehicle: saline with Tween-80.
Where [6] appears, read: dose: 50.0 mg/kg/injection, schedule: Q04DX003 (ip), vehicle: saline with Tween-80.
Where [7] appears, read: dose: 50.0 mg/kg/injection, schedule: Q01DX005 (ip), vehicle: Klucel (hydroxypropylcellulose) (HPC).
The mark [8] stands for this setting: dose: 100.0 mg/kg/injection, schedule: Q01DX005 (ip), vehicle: Klucel (hydroxypropylcellulose) (HPC).
The mark [9] stands for this setting: dose: 200.0 mg/kg/injection, schedule: Q01DX005 (ip), vehicle: Klucel (hydroxypropylcellulose) (HPC).
Setting [10] is: dose: 100.0 mg/kg/injection, schedule: Q01DX001 (ip), vehicle: Klucel (hydroxypropylcellulose) (HPC).

“And” between values parts separate entries of the source, which are not always exact repeats. Equal entries are not always repeated. Inconclusive results and toxic doses are left out.

Consider `CCOC(=O)c1c(C)c(C(=O)OCC)n2cnc(C(=O)OC)cc12`, for which the T/C is 97 % of control under setting [1]; 106 % of control and 94 % of control under setting [2]; 103 % of control and 122 % of control and 97 % of control under setting [3]; 104 % of control (2×) and 97 % of control (dose: 200.0 mg/kg/injection, schedule: Q04DX002 (ip), vehicle: saline with Tween-80); 113 % of control (dose: 400.0 mg/kg/injection, schedule: Q04DX002 (ip), vehicle: saline with Tween-80).

Turning to `Cc1ccc(NC(=O)CCCC(=O)C(C#N)c2c(Cl)cccc2Cl)cc1C` (stereo not given), the T/C by setting is: (dose: 60.0 mg/kg/injection, schedule: Q01DX005 (ip), vehicle: saline with Tween-80) 114 % of control; (dose: 120.0 mg/kg/injection, schedule: Q01DX005 (ip), vehicle: saline with Tween-80) 108 % of control; (dose: 240.0 mg/kg/injection, schedule: Q01DX005 (ip), vehicle: saline with Tween-80) 103 % of control.

Turning to `CC(=O)Nc1ccc2c(c1)C(N)c1ccccc1-2` (stereo not given), the T/C under setting [4] is 104 % of control and the T/C under setting [5] is 118 % of control.

On to `CCCCCCCCC(Cn1ccnc1)c1ccc(F)cc1` (stereo not given), for which the T/C under setting [6] is 106 % of control; the T/C under setting [4] was 100 % of control and 103 % of control; the T/C under setting [5] is 100 % of control.

Regarding `Fc1ccc(NP(=S)(Nc2ccc(F)cc2F)Nc2ccc(F)cc2F)c(F)c1`, the T/C reads like this: under setting [1], 101 % of control; under setting [2], 104 % of control; under setting [3], 102 % of control and 105 % of control.

For `C=CCC(OC(=O)c1ccc(Br)cc1)C1(C)OC1C(C)C1CC(O)(C(OC)OC)NC(=O)O1` (stereo not given), the T/C runs as follows: (dose: 0.25 mg/kg/injection, schedule: Q01DX009 (ip), vehicle: saline + alcohol) 108 % of control; (dose: 0.5 mg/kg/injection, schedule: Q01DX009 (ip), vehicle: saline + alcohol) 107 % of control; (dose: 1.0 mg/kg/injection, schedule: Q01DX009 (ip), vehicle: saline + alcohol) 115 % of control.

With `Cn1c(=O)c2c(ncn2-c2ccc(N)cc2)n(C)c1=O`, the T/C reads like this: (dose: 1.56 mg/kg/injection, schedule: Q01DX005 (ip), vehicle: water) 95 % of control; (dose: 3.12 mg/kg/injection, schedule: Q01DX005 (ip), vehicle: water) 105 % of control; (dose: 6.25 mg/kg/injection, schedule: Q01DX005 (ip), vehicle: other) 104 % of control; (dose: 6.25 mg/kg/injection, schedule: Q01DX005 (ip), vehicle: water) 96 % of control; (dose: 12.5 mg/kg/injection, schedule: Q01DX005 (ip), vehicle: other) 106 % of control; (dose: 12.5 mg/kg/injection, schedule: Q01DX005 (ip), vehicle: water) 102 % of control. Besides, the T/C by setting is: (dose: 25.0 mg/kg/injection, schedule: Q01DX005 (ip), vehicle: other) 101 % of control; (dose: 50.0 mg/kg/injection, schedule: Q01DX005 (ip), vehicle: water) 101 % of control.

`CC1(C)OC(COCCO)C(COCCO)O1` (stereo not given): the T/C was 92 % of control (dose: 100.0 mg/kg/injection, schedule: Q01DX001 (ip), vehicle: saline); 91 % of control (dose: 200.0 mg/kg/injection, schedule: Q01DX001 (ip), vehicle: saline); 92 % of control (dose: 400.0 mg/kg/injection, schedule: Q01DX001 (ip), vehicle: saline).

As for `CC(=O)OCN(C)N=Nc1ccc(Br)cc1`, the T/C is 94 % of control (dose: 36.0 mg/kg/injection, schedule: Q01DX005 (ip), vehicle: Klucel (hydroxypropylcellulose) (HPC)) and 92 % of control (dose: 72.0 mg/kg/injection, schedule: Q01DX005 (ip), vehicle: Klucel (hydroxypropylcellulose) (HPC)).

Regarding `CC(C)CC(NC(=O)c1cccnc1)C(=O)O` (stereo not given), the T/C under setting [7] was 104 % of control, the T/C under setting [8] is 99 % of control and the T/C under setting [9] is 93 % of control.

As to `N#C/C(=C\C=C\c1ccccc1)C(N)=O`, the T/C reads like this: under setting [6], 104 % of control; under setting [4], 104 % of control; under setting [5], 109 % of control.

In the case of `COc1ccc2oc(N(C)c3ccccc3)c(C3OC4OC(C)(C)OC4C3OC)c(=O)c2c1` (stereo not given), the T/C is, setting by setting: (dose: 25.0 mg/kg/injection, schedule: Q01DX001 (ip), vehicle: Klucel (hydroxypropylcellulose) (HPC)) 97 % of control; (dose: 50.0 mg/kg/injection, schedule: Q01DX001 (ip), vehicle: Klucel (hydroxypropylcellulose) (HPC)) 105 % of control; under setting [10], 109 % of control.

On to `CC(C)=NN/C=N/S(=O)(=O)c1ccc(C)cc1`, for which the T/C runs as follows: under setting [7], 104 % of control; under setting [8], 104 % of control; under setting [9], 104 % of control.

With `COC(=O)C1CP2(C)(C)N(C)C(=O)N2C1(c1ccccc1)c1ccccc1` (stereo not given), the T/C is, setting by setting: under setting [7], 102 % of control; under setting [8], 102 % of control; under setting [9], 112 % of control.

As for `Nc1ncnc2ccc(Cl)cc12`, the T/C reads like this: (dose: 50.0 mg/kg/injection, schedule: Q01DX009 (ip), vehicle: saline with Tween-80) 105 % of control; (dose: 100.0 mg/kg/injection, schedule: Q01DX009 (ip), vehicle: saline with Tween-80) 100 % of control; (dose: 200.0 mg/kg/injection, schedule: Q01DX009 (ip), vehicle: saline with Tween-80) 107 % of control.

In the case of `O=C(O)/C=N/NS(=O)(=O)c1ccccc1`, the T/C (dose: 12.5 mg/kg/injection, schedule: Q01DX009 (ip), vehicle: water) was 113 % of control; the T/C (dose: 50.0 mg/kg/injection, schedule: Q01DX009 (ip), vehicle: water) is 153 % of control; the T/C (dose: 75.0 mg/kg/injection, schedule: Q01DX009 (ip), vehicle: water) is 163 % of control; the T/C (dose: 100.0 mg/kg/injection, schedule: Q01DX009 (ip), vehicle: water) was 99 % of control.

`Cc1noc(-c2ccccc2)c1N=Nc1ccccc1`: the T/C under setting [10] is 99 % of control; the T/C (dose: 200.0 mg/kg/injection, schedule: Q01DX001 (ip), vehicle: Klucel (hydroxypropylcellulose) (HPC)) was 105 % of control; the T/C (dose: 400.0 mg/kg/injection, schedule: Q01DX001 (ip), vehicle: Klucel (hydroxypropylcellulose) (HPC)) is 93 % of control.

Regarding `CCn1c(N)c(C(=S)NC)c(=O)n(CC)c1=O`, the T/C by setting is: (dose: 50.0 mg/kg/injection, schedule: Q01DX009 (ip), vehicle: saline) 100 % of control; (dose: 100.0 mg/kg/injection, schedule: Q01DX009 (ip), vehicle: saline) 96 % of control.

In the case of `COc1cccc2c1C(=O)c1c(O)c3c(c(O)c1C2=O)C[C@@](O)(/C(C)=N\NC(=O)CCC(N)C(=O)O)C[C@@H]3OC1CC(N)C(O)C(C)O1` (stereo not given in full) (tested in a mixture with another compound), the T/C (dose: 18.75 mg/kg/injection, schedule: Q04DX003 (ip), vehicle: water) was 121 % of control; the T/C (dose: 75.0 mg/kg/injection, schedule: Q04DX003 (ip), vehicle: water) was 121 % of control; the T/C (dose: 300.0 mg/kg/injection, schedule: Q04DX003 (ip), vehicle: water) was 163 % of control.

Regarding `C[S+]1CCC(C(=O)[O-])N1` (stereo not given), the T/C by setting is: (dose: 50.0 mg/kg/injection, schedule: Q01DX005 (ip), vehicle: saline) 101 % of control; (dose: 100.0 mg/kg/injection, schedule: Q01DX005 (ip), vehicle: saline) 98 % of control; (dose: 200.0 mg/kg/injection, schedule: Q01DX005 (ip), vehicle: saline) 98 % of control.

In the case of `CCN(CCOC(=O)Nc1ccc(Cl)cc1)C(=O)Nc1ccc(Cl)cc1`, the T/C by setting is: (dose: 60.0 mg/kg/injection, schedule: Q01DX005 (ip), vehicle: Klucel + Tween-80) 90 % of control; (dose: 120.0 mg/kg/injection, schedule: Q01DX005 (ip), vehicle: Klucel + Tween-80) 87 % of control; (dose: 240.0 mg/kg/injection, schedule: Q01DX005 (ip), vehicle: Klucel + Tween-80) 87 % of control.

As for `CCC(O)(C(=O)O)c1ccccc1` (stereo not given), the T/C is, setting by setting: (dose: 25.0 mg/kg/injection, schedule: Q04DX003 (ip), vehicle: saline) 105 % of control; (dose: 50.0 mg/kg/injection, schedule: Q04DX003 (ip), vehicle: saline) 97 % of control; (dose: 100.0 mg/kg/injection, schedule: Q04DX003 (ip), vehicle: saline) 94 % of control; (dose: 200.0 mg/kg/injection, schedule: Q04DX003 (ip), vehicle: saline) 100 % of control.

Turning to `Cc1c(NS(=O)(=O)c2ccccc2)c(C)c(NS(=O)(=O)c2ccccc2)c(C)c1NS(=O)(=O)c1ccccc1`, the T/C under setting [6] is 100 % of control, the T/C under setting [4] is 90 % of control and the T/C under setting [5] was 90 % of control.
